Columns and labels:
[1] = tested on: Echinochloa oryzoides (Ard.) Fritsch.; assay: Preemergence weed control under flooded paddy conditions, ECHORC (Watergrass (Calif.)); assay type: in vivo; conditions: preemergence, flooded paddy; for herbicidal effect rating, ECHORC: rated 3-4 weeks after treatment; for ECHORC herbicidal rating: rated three to four weeks after treatment
[2] = tested on: Cyperus iria; assay: Preemergence weed control under flooded paddy conditions, CYPIR (Rice Flatsedge); assay type: in vivo; conditions: preemergence, flooded paddy; for herbicidal effect rating, CYPIR: rated 3-4 weeks after treatment; for CYPIR herbicidal rating: rated three to four weeks after treatment
[3] = tested on: Cyperus serotinus, Rottb.; assay: Preemergence weed control under flooded paddy conditions, CYPSE (Flatsedge); assay type: in vivo; conditions: preemergence; for herbicidal effect rating, CYPSE: rated 3-4 weeks after treatment
[4] = tested on: Monochoria vaginalis, Presl.; assay: Preemergence weed control under flooded paddy conditions, MOOVA (Monochoria); assay type: in vivo; conditions: preemergence, flooded paddy; for herbicidal effect rating, MOOVA: rated 3-4 weeks after treatment; for MOOVA herbicidal rating: rated three to four weeks after treatment
[5] = tested on: Sagittaria pygmaea, L.; assay: Preemergence weed control under flooded paddy conditions, SAGPY (Arrowhead (Pygmaea)); assay type: in vivo; conditions: preemergence, flooded paddy; for herbicidal effect rating, SAGPY: rated 3-4 weeks after treatment; for SAGPY herbicidal rating: rated three to four weeks after treatment
[6] = tested on: Oryza sativa, (L.) Tebonnet; assay: Rice tolerance to post-transplant applications under flooded paddy conditions (Example 187), ORYSAT (Rice, Tebonnet); conditions: for herbicidal effect rating ORYSAT: rated 3-4 weeks after treatment; for ORYSAT herbicidal rating (rice tolerance): rated three to four weeks after treatment; for herbicidal effect rating ORYSAT: meaning of each grade not given here

C=CS(=O)(=O)NC(=O)COc1ccccc1-c1nsc2ccc(-n3c(=O)cc(C(F)(F)F)n(C)c3=O)cc12 [Example 557, Acetamide, 2-{o-{5-[3,6-dihydro-3-methyl-2,6-dioxo-4-(trifluoromethyl)-1(2H)-pyrimidinyl]-1,2-benzisothiazol-3-yl}phenoxy}-N-(vinylsulfonyl)-]
herbicidal effect rating, ECHORC ([1]; Rate 0.0320 kg/ha): 4.3
herbicidal effect rating, ECHORC ([1]; Rate 0.0620 kg/ha): 5.1
herbicidal effect rating, ECHORC ([1]; Rate 0.1250 kg/ha): 6.3
herbicidal effect rating, ECHORC ([1]; Rate 0.2500 kg/ha): 9.0
herbicidal effect rating, ECHORC ([1]; Rate 0.5000 kg/ha): 9.0
herbicidal effect rating, CYPIR ([2]; Rate 0.0320 kg/ha): 4.0
herbicidal effect rating, CYPIR ([2]; Rate 0.0620 kg/ha): 8.0
herbicidal effect rating, CYPIR ([2]; Rate 0.1250 kg/ha): 9.0
herbicidal effect rating, CYPIR ([2]; Rate 0.2500 kg/ha): 9.0
herbicidal effect rating, CYPIR ([2]; Rate 0.5000 kg/ha): 9.0
herbicidal effect rating, CYPSE ([3]; Rate 0.0320 kg/ha): 0.0
herbicidal effect rating, CYPSE ([3]; Rate 0.1250 kg/ha): 6.0
herbicidal effect rating, CYPSE ([3]; Rate 0.2500 kg/ha): 9.0
herbicidal effect rating, CYPSE ([3]; Rate 0.5000 kg/ha): 5.0
herbicidal effect rating, MOOVA ([4]; Rate 0.0320 kg/ha): 9.0
herbicidal effect rating, MOOVA ([4]; Rate 0.0620 kg/ha): 9.0
herbicidal effect rating, MOOVA ([4]; Rate 0.1250 kg/ha): 9.0
herbicidal effect rating, MOOVA ([4]; Rate 0.2500 kg/ha): 9.0
herbicidal effect rating, MOOVA ([4]; Rate 0.5000 kg/ha): 9.0
herbicidal effect rating, SAGPY ([5]; Rate 0.0320 kg/ha): 0.0
herbicidal effect rating, SAGPY ([5]; Rate 0.0620 kg/ha): 0.0
herbicidal effect rating, SAGPY ([5]; Rate 0.1250 kg/ha): 2.0
herbicidal effect rating, SAGPY ([5]; Rate 0.2500 kg/ha): 4.0
herbicidal effect rating, SAGPY ([5]; Rate 0.5000 kg/ha): 4.0
herbicidal effect rating ORYSAT ([6]; Rate 0.0320 kg/ha): 6.0
herbicidal effect rating ORYSAT ([6]; Rate 0.0620 kg/ha): 8.0
herbicidal effect rating ORYSAT ([6]; Rate 0.1250 kg/ha): 8.0
herbicidal effect rating ORYSAT ([6]; Rate 0.2500 kg/ha): 9.0
herbicidal effect rating ORYSAT ([6]; Rate 0.5000 kg/ha): 9.0

Cc1ccc(OC(C)(C)C(=O)OC(C)C)c(-c2nsc3ccc(-n4c(=O)cc(C(F)(F)F)n(C)c4=O)cc23)c1 [Example 547, Propionic acid, 2-{{2-{5-[3,6-dihydro-3-methyl-2,6-dioxo-4-(trifluoromethyl)-1(2H)-pyrimidinyl]-1,2-benzisothiazol-3-yl}-p-tolyl}oxy}-2-methyl-, isopropyl ester]
herbicidal effect rating, ECHORC ([1]; Rate 0.0320 kg/ha): 5.4
herbicidal effect rating, ECHORC ([1]; Rate 0.0620 kg/ha): 5.4
herbicidal effect rating, ECHORC ([1]; Rate 0.1250 kg/ha): 5.6
herbicidal effect rating, ECHORC ([1]; Rate 0.2500 kg/ha): 9.0
herbicidal effect rating, ECHORC ([1]; Rate 0.5000 kg/ha): 9.0
herbicidal effect rating, CYPIR ([2]; Rate 0.0320 kg/ha): 7.0
herbicidal effect rating, CYPIR ([2]; Rate 0.0620 kg/ha): 7.0
herbicidal effect rating, CYPIR ([2]; Rate 0.1250 kg/ha): 9.0
herbicidal effect rating, CYPIR ([2]; Rate 0.2500 kg/ha): 9.0
herbicidal effect rating, CYPIR ([2]; Rate 0.5000 kg/ha): 9.0
herbicidal effect rating, CYPSE ([3]; Rate 0.0320 kg/ha): 6.0
herbicidal effect rating, CYPSE ([3]; Rate 0.0620 kg/ha): 8.0
herbicidal effect rating, CYPSE ([3]; Rate 0.1250 kg/ha): 8.0
herbicidal effect rating, CYPSE ([3]; Rate 0.2500 kg/ha): 7.0
herbicidal effect rating, CYPSE ([3]; Rate 0.5000 kg/ha): 0.0
herbicidal effect rating, MOOVA ([4]; Rate 0.0320 kg/ha): 9.0
herbicidal effect rating, MOOVA ([4]; Rate 0.0620 kg/ha): 9.0
herbicidal effect rating, MOOVA ([4]; Rate 0.1250 kg/ha): 9.0
herbicidal effect rating, MOOVA ([4]; Rate 0.2500 kg/ha): 9.0
herbicidal effect rating, MOOVA ([4]; Rate 0.5000 kg/ha): 9.0
herbicidal effect rating, SAGPY ([5]; Rate 0.0320 kg/ha): 2.0
herbicidal effect rating, SAGPY ([5]; Rate 0.0620 kg/ha): 4.0
herbicidal effect rating, SAGPY ([5]; Rate 0.1250 kg/ha): 4.0
herbicidal effect rating, SAGPY ([5]; Rate 0.2500 kg/ha): 7.0
herbicidal effect rating, SAGPY ([5]; Rate 0.5000 kg/ha): 3.0
herbicidal effect rating ORYSAT ([6]; Rate 0.0320 kg/ha): 2.0
herbicidal effect rating ORYSAT ([6]; Rate 0.0620 kg/ha): 3.0
herbicidal effect rating ORYSAT ([6]; Rate 0.1250 kg/ha): 4.0
herbicidal effect rating ORYSAT ([6]; Rate 0.2500 kg/ha): 4.0
herbicidal effect rating ORYSAT ([6]; Rate 0.5000 kg/ha): 3.0

COC(=O)C(C)Oc1cc(Cl)c(C)cc1-c1nsc2ccc(-n3c(=O)cc(C(F)(F)F)n(C)c3=O)cc12 (centres unmarked) [Example 492, Propionic acid, 2-{{5-chloro-2-{5-[3,6-dihydro-3-methyl-2,6-dioxo-4-(trifluoromethyl)-1(2H)-pyrimidinyl]-1,2-benzisothiazol-3-yl}-p-tolyl}oxy}-, methyl ester]
ECHORC herbicidal rating ([1]; 0.0320 kg/ha): 4.0
ECHORC herbicidal rating ([1]; 0.0620 kg/ha): 6.0
ECHORC herbicidal rating ([1]; 0.1250 kg/ha): 6.0
ECHORC herbicidal rating ([1]; 0.2500 kg/ha): 9.0
CYPIR herbicidal rating ([2]; 0.0320 kg/ha): 4.0
CYPIR herbicidal rating ([2]; 0.0620 kg/ha): 4.0
CYPIR herbicidal rating ([2]; 0.1250 kg/ha): 4.0
CYPIR herbicidal rating ([2]; 0.2500 kg/ha): 5.0
CYPSE herbicidal rating ([3]; 0.2500 kg/ha, rated three to four weeks after treatment): 0.0
MOOVA herbicidal rating ([4]; 0.0320 kg/ha): 6.0
MOOVA herbicidal rating ([4]; 0.0620 kg/ha): 6.0
MOOVA herbicidal rating ([4]; 0.1250 kg/ha): 7.0
MOOVA herbicidal rating ([4]; 0.2500 kg/ha): 7.0
SAGPY herbicidal rating ([5]; 0.0320 kg/ha): 0.0
SAGPY herbicidal rating ([5]; 0.0620 kg/ha): 0.0
SAGPY herbicidal rating ([5]; 0.1250 kg/ha): 0.0
SAGPY herbicidal rating ([5]; 0.2500 kg/ha): 2.0
ORYSAT herbicidal rating (rice tolerance) ([6]; 0.0320 kg/ha): 2.0
ORYSAT herbicidal rating (rice tolerance) ([6]; 0.0620 kg/ha): 2.0
ORYSAT herbicidal rating (rice tolerance) ([6]; 0.1250 kg/ha): 2.0
ORYSAT herbicidal rating (rice tolerance) ([6]; 0.2500 kg/ha): 3.0
